# pIC50: −log10 of the molar value.
# Target: T1, human Glu-plasminogen (Homo sapiens, UniProt P00747)
# T1 construct: human Glu-plasminogen; purchased Chromogenix, Italy
# Assay: Clot-lysis buffer assay
# Format: biochemical
# Procedure: The assay method used for evaluating biological activity of the compounds according to the invention was Clot-lysis buffer assay.
# Tested substance were added to the reaction mixture in 10% DMSO. Reaction was started by the addition of thrombin.
# Measured according to the Clot-lysis buffer assay described above.
# T1 sequence (P00747 20-810 limits assumed): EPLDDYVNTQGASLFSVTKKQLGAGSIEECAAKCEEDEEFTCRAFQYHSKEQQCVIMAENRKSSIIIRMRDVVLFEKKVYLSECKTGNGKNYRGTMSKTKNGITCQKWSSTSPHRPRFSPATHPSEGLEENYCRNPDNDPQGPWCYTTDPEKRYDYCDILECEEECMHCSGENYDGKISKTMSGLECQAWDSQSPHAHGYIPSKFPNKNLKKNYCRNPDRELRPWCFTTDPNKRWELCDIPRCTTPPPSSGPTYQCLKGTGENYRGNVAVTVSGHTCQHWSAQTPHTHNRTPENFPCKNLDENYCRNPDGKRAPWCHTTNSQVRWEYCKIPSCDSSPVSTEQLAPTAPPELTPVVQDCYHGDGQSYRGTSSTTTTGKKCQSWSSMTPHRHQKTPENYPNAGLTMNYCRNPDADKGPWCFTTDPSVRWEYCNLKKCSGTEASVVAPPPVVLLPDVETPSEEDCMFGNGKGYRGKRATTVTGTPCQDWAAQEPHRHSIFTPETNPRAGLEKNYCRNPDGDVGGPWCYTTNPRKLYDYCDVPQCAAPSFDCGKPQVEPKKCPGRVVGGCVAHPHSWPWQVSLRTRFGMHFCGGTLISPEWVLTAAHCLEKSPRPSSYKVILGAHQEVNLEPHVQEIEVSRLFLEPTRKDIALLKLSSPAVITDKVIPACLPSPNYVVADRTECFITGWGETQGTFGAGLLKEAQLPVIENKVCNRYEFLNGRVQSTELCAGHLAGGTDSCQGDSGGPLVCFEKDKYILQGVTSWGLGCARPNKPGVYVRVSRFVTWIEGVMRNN
row,SMILES,pIC50
1,"O=c1cc([C@@H]2CCN[C@@H](c3ccc(F)c(F)c3)C2)o[nH]1 (relative stereo) [Example 24, 5-(Trans-2-(3,4-difluorophenyl)piperidin-4-yl)isoxazol-3(2H)-one]",4.37
2,"CC(C)(C[C@@H]1C[C@@H](c2cc(=O)[nH]o2)CCN1)c1ccccc1 [Example 18, 5-((2S,4S)-2-(2-Methyl-2-phenylpropyl)piperidin-4-yl)isoxazol-3(2H)-one]",5.80
3,"O=c1cc([C@@H]2CCN[C@@H](c3cc(F)c(Cl)c(F)c3)C2)o[nH]1 (relative stereo) [Example 66, 5-(Trans-2-(4-chloro-3,5-difluorophenyl)piperidin-4-yl)isoxazol-3(2H)-one]",5.12
4,"O=c1cc([C@@H]2CCN[C@H](Cc3cc(F)ccc3F)C2)o[nH]1 [Example 125, 5-((2S,4R)-2-(2,5-Difluorobenzyl)piperidin-4-yl)isoxazol-3(2H)-one]",4.03

# — US8415378B2, “Isoxazol-3(2H)-one analogs as therapeutic agents” (AstraZeneca AB, priority 2009, dated 2013)
